Test results: a melting point compilation (Tetko et al.; mined from patent text by program, amines drawn as free bases though some values may be those of a salt)

| SMILES | melting point |
| --- | --- |
| CN1C(=O)C(C)(C)C(=O)N(C)c2cc([N+](=O)[O-])ccc21 | 224 to 225 °C |
| CCCc1c(OCCOCCOCCOCCOc2ccc3ccc(OCC(=O)O)cc3c2C(C)=O)ccc(C(C)=O)c1O | 57 to 58 °C |
| CC(=O)c1sc(N2CCN(CC3CC3(F)F)C2=O)nc1C (configuration not stated) | 146 to 148 °C |
| CN(C)Nc1c([N+](=O)[O-])cc(C(F)(F)F)c(Cl)c1[N+](=O)[O-] | 130 to 131 °C |
| COc1cc(C(=O)N2CCN(C(=O)c3cc(OC)c(OC)c(OC)c3)C(CNC(=O)OC(C)C)C2)cc(OC)c1OC (configuration not stated) | 140 °C |
| CCCCCCCCCCCCCCCCCC(=O)N[C@H]1CCCNC(=O)C1 | 87 to 88 °C |
| CCCCCCCCCCCCCCCc1c([N+](=O)[O-])cc([N+](=O)[O-])c(O)c1C(=O)O | 78 to 82 °C |
| O=C(c1ccc2nonc2c1)N1C2CCC1COC2 | 139 to 140 °C |
| N#Cc1ccc2c(c1)C(O)CCCO2 (configuration not stated) | 85 to 86.5 °C |
| CC(C)[C@@H]1C[C@H](O)[C@H](C2CCCCC2)NC1=O | 97 to 99 °C |
| COC(C)=CC(=O)NC1CCCCC1 | 109 °C |
| CCc1c(C)nc(OC)c(NC(=O)C(C)(C)C)c1Cc1cc(C)cc(C)c1 | 138 to 139 °C |
| COC(=O)NC1CC(=O)N(c2cc(Cl)cc(Cl)c2)C1=O (configuration not stated) | 136 to 138 °C |
| CCC(Cc1cc(C(C)(C)C)c(O)c(C(C)(C)C)c1)(C(=O)OCC1(C)C(C)(C)C=C(O)CC1(C)C)C(=O)OCC1(C)C(C)(C)C=C(O)CC1(C)C (configuration not stated) | 166 °C |
| Cc1nc2c(s1)C=Cc1cc(Cl)ccc1C2c1cn(C)c(=O)[nH]c1=S (configuration not stated) | 305 °C |
| O=C(NCCNCCNC(=O)C(F)(F)F)C(F)(F)F | 68 to 70 °C |
| CC(=O)C(Oc1cc(Cl)cc(C#N)c1)C(C)=O | 105 to 108 °C |
| O=C1c2c(O)cccc2C(SCC(O)CO)c2cccc(O)c21 (configuration not stated) | 154 to 155 °C |
| C1=NCc2cncn2-c2ccccc21 | 150 to 151 °C |
| CNC(=S)N(C)Cc1ccc(Cl)nc1 | 109 to 110 °C |
| CCOC(=O)Cc1csc(NC(N)=O)n1 | 173 to 174 °C |
| Cc1cc(N)c(F)cc1Br | 57 °C |

| SMILES | melting point |
| --- | --- |
| CCCCNC(=O)ON1C(C)(C)CC(OC(=O)c2cccc(C(=O)OC3CC(C)(C)N(OC(=O)NCCCC)C(C)(C)C3)c2)CC1(C)C | 176 to 177 °C |
| COc1ccc(C=Cc2nnc(C(Cl)(Cl)Cl)o2)cc1 | 140 to 142 °C |
| CCOC(=O)CSc1nc2cc([N+](=O)[O-])ccc2[nH]1 | 114 °C |
| O=c1cc(C(F)(F)F)nc(Cl)n1-c1cc(Oc2ncccn2)c(Cl)cc1F | 132 to 134 °C |
| CC(=O)NC[C@H]1CN(c2ccc(C3=CCSCC3)c(F)c2)C(=O)O1 | 119 to 122 °C |
| CNC(=O)Oc1ccc(NC(=O)C(Cl)(Cl)Cl)c(C)c1 | 185 to 187 °C |
| CN1Cc2c(C#CC3(O)CCCC3)ncn2-c2cccc(Cl)c2C1=O | 207 to 208 °C |
| COC1=C(OC)C(O)C(CC=C(C)CCC=C(C)CCC=C(C)C)C(C)C1=O (configuration not stated) | 48 to 52 °C |
| O=C(O)c1cc2c(F)ccc(Br)c2s1 | 249 to 252 °C |
| O=c1c2ccc(-c3nnn[nH]3)cc2oc2ccc(-c3nnn[nH]3)cc12 | > 400 °C |
| CCOC(=O)c1oc(C)c(O)c1O | 120 to 121 °C |
| COc1cc2c(Cl)c(C#N)cnc2cc1OCC1CCN(C)CC1 | 166 to 168 °C |
| COC(=O)c1cc(O)c([N+](=O)[O-])cc1C(=O)OC | 82 to 85 °C |
| Cc1sc(C(=O)NCc2ccc3c(c2)OCO3)cc1[N+](=O)[O-] | 181 to 183 °C |
| O=C(c1ccc2c(c1)OCCOCCOCCOCCOCCO2)c1ccccn1 | 78 to 80 °C |
| CCCC=Cc1ncn2c1CN(C)C(=O)c1cc(F)ccc1-2 | 150 to 151 °C |
| C=CCn1c(C)nc2c1CCCC2=O | 78 °C |
| CC12CC(F)C3c4ccc(O)cc4CC(CCCCCN4CCCC4CSCCCC(F)(F)C(F)(F)F)C3C1CCC2O (configuration not stated) | 174 to 176 °C |
| CCOC(=O)C1(Cl)C(=O)N2CCOc3cc(Cl)cc1c32 (configuration not stated) | 147 to 148 °C |
| O=C1CCCc2c1[nH]c1ccc(F)cc21 | 131 °C |
| Cc1cc(Br)c(Cl)c(Cl)c1N | 66 to 68 °C |

The remaining lines, values ahead:

| melting point | SMILES |
| --- | --- |
| 178 °C | CCOc1cc(C)ccc1C1CCN(CCCCC(=O)Nc2ccc(-c3ccc(C(F)(F)F)cc3)cc2)CC1 |
| 117 to 118 °C | CCOC(=O)/C=C/c1c2c(nn1-c1ccc(F)cc1)C(Cc1ccccc1)CCC2 (configuration not stated) |
| 129 °C | CN(C)Cc1cc(C(=O)c2ccccc2)cc(C(C)(C)C)c1O |
| 170 to 172 °C | Clc1ccc(-c2c(CC3NCCS3)cnn2-c2ccccc2)cc1 (configuration not stated) |
| 118 °C | COc1c(C)cccc1CC(N)(CF)C(N)=O (configuration not stated) |
| 169 to 171 °C | OCc1ccc(OCc2cn3c(Cl)cccc3n2)cc1 |
| 190 to 193 °C | Cc1ccc(NC(=O)N[C@]2(C3CCCCC3)N=Cc3ccccc3N(C)C2=O)cc1Nc1nnn[nH]1 |
| 73 to 81 °C | CCOC(=O)C=C(C)Nc1ccccc1N |
| 229 to 233 °C | Cc1c(Cc2ccccc2)c(=O)oc2cc(OCc3nnn[nH]3)cc(OCc3nnn[nH]3)c12 |
| 184 to 186 °C | O=C(Nc1ccc(O)c(C(=O)O)c1)OCc1ccccc1 |
| 207 to 210 °C | CC(C)c1cccc(C(C)C)c1NC(=O)C(Br)c1ccccc1 (configuration not stated) |
| 144 to 152 °C | COc1cc2c(Cl)c(C(=O)Cl)sc2cc1OCc1ccccc1 |
| 239 to 240 °C | O=C(Nc1nnco1)C1c2ccccc2Oc2ccccc21 |
| 214 to 216 °C | CC(=O)c1c(C)c(NC(=O)CC(C)(C)C)c(C)c2c1S(=O)CC2c1ccc(C(C)C)cc1 (configuration not stated) |
| 174 to 175 °C | Cn1cc(-c2cccc(C(F)(F)F)c2)c(=O)c(C2CCCCC2)c1 |
| > 260 °C | CC(C)Cc1ccccc1-n1c(=O)[nH]c2c(C(N)=O)nc(-c3cccc(O)c3)nc21 |
| 209 to 214 °C | Cc1ccc(C(=O)Nc2ccccc2C(=O)NCCc2ncc[nH]2)cc1 |
| 181 to 183 °C | CN1C(=O)CC[C@]2(C)c3ccc(C=Cc4cnc5ccccc5c4)cc3CC[C@@H]12 |
| 116 to 117 °C | COc1ccc2c(c1)C(=O)C(Oc1cccnc1)CO2 (configuration not stated) |
| 242 to 245 °C | O=C1Cc2cc([N+](=O)[O-])ccc2Sc2cc(Br)ccc21 |

| melting point | SMILES |
| --- | --- |
| 116 to 119 °C | CC(C)NCC#CC(O)c1ccccc1-c1ccccc1 (configuration not stated) |
| 153 to 156 °C | O=C1Nc2cccnc2N(C(=O)N2CCCC(CCCCN3CCCC3)C2)c2ccccc21 (configuration not stated) |
| 252 °C | Nc1ccc(-c2noc(-c3cnn4c(C(F)F)cc(-c5ccc(C(F)(F)F)c(Cl)c5)nc34)n2)cn1 |
| 235 to 240 °C | N#Cc1ccc(Nc2ccc(C(F)(F)F)cc2Nc2ccc(C#N)cc2C(=O)O)c(C(=O)O)c1 |
| 192 to 193 °C | O=C(O)c1cccc(-c2ccc3c(c2)C(c2ccc(Cl)cc2Cl)CO3)c1 (configuration not stated) |
| 146 to 148 °C | Cc1nc(-c2ccc(C(F)(F)F)cc2)sc1N |
| 132 °C | Fc1ccc(-c2nc3ccccc3nc2-c2ccc(F)cc2)cc1 |
| 133 to 135 °C | OC(c1ccccn1)c1cc(C(F)(F)F)nc2c(C(F)(F)F)cccc12 (configuration not stated) |
| 162 to 164 °C | COc1cc2c(cc1OC)CN(CCc1ccc(-c3ccccc3)cc1)CC2 |
| 222 to 224 °C | Cn1c(=O)c2c(nc(Cl)n2Cc2ccccc2C#N)n(C)c1=O |
| 193 to 196 °C | NC(=O)CCN1CCC(CNc2ccc(Cl)cc2C(=O)Nc2ccc(Cl)cn2)CC1 |
| 131 to 132 °C | COc1cccc(O[C@@H]2COc3ccc(-c4ccc5cc(F)ccc5n4)cc3[C@@H]2O)c1 (relative stereo) |
| 215 to 217 °C | Cc1ccc(NC(=O)c2nc[nH]c2C)cc1Cl |
| 114 to 117 °C | CC(C)COC(=O)N1CCC(c2ccc(COc3ccc(S(C)(=O)=O)cc3)nc2)CC1 |
| 78.5 to 81 °C | Cc1ccccc1-c1ccn(C(C)(C)C(=O)N(C)C)n1 |
| 143 to 147 °C | CCN(CC)C(=O)c1cccc2c(=O)c(C)c(-c3ccc(OC)cc3)oc12 |
| 78 °C | COc1ccc(Cc2cc(S)ccc2OC)cc1 |
| 137 to 140 °C | COC(=O)c1ccc2ccc(NC(=O)OC(C)(C)C)c(Br)c2c1 |
| 136 to 139 °C | Cc1ccc(NC(=O)c2cccc(N(C)C)c2)cc1NC(=O)c1ccccc1O |
| 147 to 148 °C | O=C(c1c(Cl)cccc1[N+](=O)[O-])n1ccnc1-c1ccccc1 |

| melting point | SMILES |
| --- | --- |
| 286 to 288 °C | COc1cc2[nH]c(C(=O)O)cc(=O)c2c2cccnc12 |
| 224 to 225 °C | CCCn1nc2c(N)nc3ccccc3c2c1CC(C)(C)C(N)=O |
| 118 °C | Cc1nnsc1CS(=O)(=O)c1ccccc1 |
| 176 °C | O=C(c1ccc(F)cc1)C1CCN(CCCCn2c(=O)[nH]c3ccccc32)CC1 |
| 225 to 227 °C | O=C(O)CNC(=O)c1nc2ccc(Oc3ccccc3)cc2cc1O |
| 110 to 112 °C | CNCC(=O)Nc1ccc(S(=O)(=O)c2cccc(Cl)c2)cc1 |
| 98 to 100 °C | O=C(O)Cc1ccc(Oc2ccc(Cl)cc2)cc1 |
| 69 °C | CCC1CC(=O)N(Cc2ccc(NS(C)(=O)=O)cc2)N=C1c1ccc(OC)c(OC2CCCC2)c1 (configuration not stated) |
| 153 to 154 °C | CCCCCCC#CC(O)C1=Nc2ccc(F)cc2C(=O)C1C (configuration not stated) |
| 169 to 173 °C | COc1cc(N2CCOCC2)ccc1Nc1ncc2cc3ccccc3n2n1 |
| 115 to 117 °C | Cc1ccc(Cc2cnc(NCC(O)COc3cccc(CN4CCCCC4)c3)[nH]c2=O)cn1 (configuration not stated) |
| 181 to 182 °C | CCOC(=O)C1Cc2ccc(N(C)C)cc2NC1=O (configuration not stated) |
| 69 to 70 °C | CC(C)c1nn(-c2ccc(Cl)cn2)cc1C=O |
| 172 °C | CS(=O)(=O)c1ccc(-c2cc(F)c(F)cc2-c2ccc(F)c(Cl)c2)cc1 |
| 62 to 63 °C | CON=C(C(=O)OC)c1cccc(OCc2ccccc2)c1 |
| 118 to 122 °C | CC(C)c1cccc(C(C)C)c1NC(=O)[C@H](C)N |
| 161 to 162 °C | COc1cccc(C(=O)N2C(=O)CN(c3ccccc3)C2=O)c1 |
| 150 to 152 °C | CN1CCN(CCCn2cc(Br)c3c4c(c(-c5ccccc5Cl)cc32)C(=O)NC4=O)CC1 |
| 91 to 93 °C | CC(C(=O)O)c1ccc2oc(Cc3ccc(F)cc3)nc2c1 (configuration not stated) |
